According to US7754445B2, “Method for the enzymatic production of a curing agent and its fluid state” (TMI Europe, priority 2001, dated 2010):

Assay: monitoring the stability of the solution (hypothiocyanite concentration in water leaving the reactor)
Format: physicochemical
From the text: The hypothiocyanite ions (OSCN^−) are able to react with the sulfhydryl groups of a 5,5′-dithiobis (2-nitrobenzoic acid) molecule which has previously been reduced in the presence of an excess of sodium borohydride.
This reduced molecule absorbs light at a wavelength of 412 nm.
When the hypothiocyanite ions (OSCN^−) oxidize the sulfhydryl groups, the absorbance at 412 nm decreases in proportion to the quantity of ions which are present in the sample, thereby enabling them to be quantified.
The methods described above are used to monitor the change in the concentration of hypothiocyanite ion, i.e. OSCN^−, in solutions leaving the reactor, the results of which are obtained are illustrated in FIGS. 3 and 4, which depict the curve for the changes in the concentration of hypothiocyanite ion, OSCN^−, in the water leaving the reactor over a period of 1 day (FIGS. 4) and 4 days (FIG. 3).

concentration of OSCN^− (after 10 hours (FIG. 4)): 500000 µM
fall in concentration of OSCN^− (after 20 hours (FIG. 4)): 50%
residual concentration of hypothiocyanite ion, relative to the initial concentration (after 80 hours (FIG. 3)): 16%
concentration of OSCN^− (initial, solution leaving the reactor (FIG. 4)): 600000 µM
Compound: N#CSO [OSCN^−, hypothiocyanite ion]
